# Assays:
# CAKI-1 = assay: NCI-60 screening, one-dose (10 µM) and five-dose, SRB; format: cell-based; conditions: Homo sapiens; 10 μM; CAKI-1, Renal Cancer; read-out: Growth percentage
# SNB-19 = assay: as above; format: cell-based; conditions: Homo sapiens; 10 μM; SNB-19, CNS Cancer; read-out: Growth percentage
# NCI-H226 = assay: as above; format: cell-based, human; conditions: Homo sapiens; 10 μM; NCI-H226, Non-Small-Cell Lung Cancer; read-out: Growth percentage
# OVCAR-3 = assay: as above; format: cell-based; conditions: Homo sapiens; 10 μM; OVCAR-3, Ovarian Cancer; read-out: Growth percentage
# 786−0 = assay: as above; format: cell-based, human; conditions: Homo sapiens; 10 μM; 786−0, Renal Cancer; read-out: Growth percentage
# IGROV1 = assay: as above; format: cell-based, human; conditions: 10 μM; IGROV1, Ovarian Cancer
# MALME-3M = assay: as above; format: cell-based, human; conditions: 10 μM, Melanoma
# DU-145 = assay: as above; format: cell-based, human; conditions: Homo sapiens; 10 μM; DU-145, Prostate Cancer; read-out: Growth percentage
# OVCAR-4 = assay: as above; format: cell-based, human; conditions: Homo sapiens; 10 μM; OVCAR-4, Ovarian Cancer; read-out: Growth percentage
# SN12C = assay: as above; format: cell-based, human; conditions: Homo sapiens, 10 μM, Renal Cancer, read-out: Growth percentage
# NCI-H460 = assay: as above; format: cell-based, human; conditions: Homo sapiens, NCI-H460, 10 μM; NCI-H460, Non-Small-Cell Lung Cancer; read-out: Growth percentage
# MCF7 = assay: as above; format: cell-based, human; conditions: Homo sapiens, MCF7, 10 μM; MCF7, Breast Cancer; read-out: Growth percentage
# HL-60(TB) = assay: as above; format: cell-based, human; conditions: Homo sapiens; for activity at 10 µM: HL-60, 10 μM, HL-60(TB), Leukemia, read-out: Growth percentage
# NCI-H522 = assay: as above; format: cell-based, human; conditions: Homo sapiens; 10 μM; NCI-H522, Non-Small-Cell Lung Cancer; read-out: Growth percentage
# M14 = assay: as above; format: cell-based, human; conditions: Homo sapiens; 10 μM; M14, Melanoma; read-out: Growth percentage
# SK-MEL-2 = assay: as above; format: cell-based, human; conditions: Homo sapiens; 10 μM; SK-MEL-2, Melanoma; read-out: Growth percentage
# RPMI-8226 = assay: as above; format: cell-based, human; conditions: Homo sapiens; for activity at 10 µM: RPMI-8226, 10 μM, RPMI-8226, Leukemia, read-out: Growth percentage
# HOP-62 = assay: as above; format: cell-based, human; conditions: Homo sapiens, HOP-62, 10 μM; HOP-62, Non-Small-Cell Lung Cancer; read-out: Growth percentage
# COLO 205 = assay: as above; format: cell-based, human; conditions: Homo sapiens; 10 μM; COLO 205, Colon Cancer; read-out: Growth percentage
# [1] = test system: 60 human cancer cell lines; assay: NCI-60 screening, full panel (mean growth, MID a, ranges over all lines); conditions: Homo sapiens, read-out: Mean growth percentage
# SK-MEL-28 = assay: NCI-60 screening, one-dose (10 µM) and five-dose, SRB; format: cell-based, human; conditions: Homo sapiens; 10 μM; SK-MEL-28, Melanoma; read-out: Growth percentage
# UACC-257 = assay: as above; format: cell-based, human; conditions: Homo sapiens; 10 μM; UACC-257, Melanoma; read-out: Growth percentage
# SK-MEL-5 = assay: as above; format: cell-based, human; conditions: Homo sapiens; 10 μM; SK-MEL-5, Melanoma; read-out: Growth percentage
# OVCAR-8 = assay: as above; format: cell-based, human; conditions: Homo sapiens; 10 μM; OVCAR-8, Ovarian Cancer; read-out: Growth percentage
# UACC-62 = assay: as above; format: cell-based; conditions: Homo sapiens; 10 μM; UACC-62, Melanoma; read-out: Growth percentage
# LOX IMVI = assay: as above; format: cell-based, human; conditions: Homo sapiens, 10 μM, Melanoma, read-out: Growth percentage
# SW-620 = assay: as above; format: cell-based, human; conditions: Homo sapiens; 10 μM; SW-620, Colon Cancer; read-out: Growth percentage
# NCI-H322M = assay: as above; format: cell-based, human; conditions: 10 μM, Non-Small-Cell Lung Cancer
# SF-268 = assay: as above; format: cell-based, human; conditions: Homo sapiens; 10 μM; SF-268, CNS Cancer; read-out: Growth percentage
Compound,activity at 10 µM (CAKI-1),activity at 10 µM (SNB-19),activity at 10 µM (NCI-H226),activity at 10 µM (OVCAR-3),activity at 10 µM (786−0),activity at 10 µM (DU-145),activity at 10 µM (OVCAR-4),activity at 10 µM (SN12C),activity at 10 µM (NCI-H460),activity at 10 µM (NCI-H522),activity at 10 µM (M14),activity at 10 µM (SK-MEL-2),activity at 10 µM (HOP-62),activity at 10 µM (COLO 205),activity at 10 µM [1],activity at 10 µM (SK-MEL-28),activity at 10 µM (UACC-257),activity at 10 µM (SK-MEL-5),activity at 10 µM (OVCAR-8),activity at 10 µM (UACC-62),other results
"CC(=O)c1sc(SCC(=O)N2CCN(c3cc4c(cc3F)c(=O)c(C(=O)O)cn4C3CC3)CC2)nc1C [Compound 4a, 7-(4-(2-((5-Acetyl-4-methylthiazol-2-yl)thio)acetyl)piperazin-1-yl)-1-cyclopropyl-6-fluoro-4-oxo-1,4-dihydroquinoline-3-carboxylic Acid]",99.2%,102%,117%,98.8%,96.2%,95.3%,95.1%,98%,104%,98.9%,104%,97.4%,95.6%,118%,102%,96.7%,102%,89%,105%,104%,Growth percentage (IGROV1): 115.9%; Growth percentage (MALME-3M): 104.9%; activity at 10 µM (MCF7): 94.2%; activity at 10 µM (HL-60(TB)): 102%; activity at 10 µM (RPMI-8226): 133%; activity at 10 µM (LOX IMVI): 106%; activity at 10 µM (SW-620): 113%; Growth percentage (NCI-H322M): 105.5%; activity at 10 µM (SF-268): 103%
"COc1ccc(/C=C/C(=O)c2sc(SCC(=O)N3CCN(c4cc5c(cc4F)c(=O)c(C(=O)O)cn5C4CC4)CC3)nc2C)cc1 [Compound 4j, (E)-1-Cyclopropyl-6-fluoro-7-(4-(2-((5-(3-(4-methoxyphenyl)acryloyl)-4-methylthiazol-2-yl)thio)acetyl)piperazin-1-yl)-4-oxo-1,4-dihydroquinoline-3-carboxylic Acid]",94.9%,103%,102%,174%,88.6%,113%,101%,96.2%,106%,99%,109%,104%,98.3%,106%,105%,114%,114%,99.7%,94.6%,111%,activity at 10 µM (MCF7): 93.3%; activity at 10 µM (HL-60(TB)): 101%; activity at 10 µM (RPMI-8226): 106%; activity at 10 µM (LOX IMVI): 97.9%; activity at 10 µM (SW-620): 123%; activity at 10 µM (SF-268): 148%
"COc1cccc(/C=C/C(=O)c2sc(SCC(=O)N3CCN(c4cc5c(cc4F)c(=O)c(C(=O)O)cn5C4CC4)CC3)nc2C)c1OC [Compound 4k, (E)-1-Cyclopropyl-7-(4-(2-((5-(3-(2,3-dimethoxyphenyl)acryloyl)-4-methylthiazol-2-yl)thio)acetyl)piperazin-1-yl)-6-fluoro-4-oxo-1,4-dihydroquinoline-3-carboxylic Acid]",107%,87.2%,102%,84.5%,96.9%,98%,118%,87.5%,73.1%,104%,75.1%,93.4%,-20.2%,126%,77.9%,100%,102%,83%,87.6%,102%,"Growth percentage (IGROV1): 101.3%; Growth percentage (MALME-3M): 115.2%; IC50 (HL-60(TB); HL-60, leukemia HL-60): 2.95 µM; IC50 (RPMI-8226; RPMI-8226, RPMI-8226): 0.34 µM; activity at 10 µM (LOX IMVI): 104%; activity at 10 µM (SW-620): 90.7%; Growth percentage (NCI-H322M): 114.8%; activity at 10 µM (SF-268): 109%"
